Assay [1] concerns male Sprague-Dawley rats. As to the kind of experiment: in vivo screen APCC: blood cholesterol in rats after one night on a high fat, high cholesterol diet (PCC). Particulars: blood cholesterol vs vehicle (CMC/Tween), dosed at 4 PM, PCC diet containing 0.5% cholic acid overnight, sacrificed at 8 AM, dose not given. From the text: In one in vivo screen designated APCC, male Sprague-Dawley rats (200 to 225 g) were randomly divided into treatment groups and dosed at 4 PM with either vehicle (CMC/Tween) or suspensions of compounds in vehicle. The normal chow diet was then replaced with a high fat, high cholesterol diet (designated PCC) containing 0.5% cholic acid. The rats consumed this diet ad libitum during the night and were sacrificed at 8 AM to obtain blood samples for cholesterol analysis using standard procedures. Statistical differences between mean cholesterol values for the same vehicle were determined using analysis of variance followed by Fisher's least significant test.

Assay [2] addresses acyl-CoA: cholesterol acyltransferase (ACAT). As to the kind of experiment: in vitro ACAT inhibition test (IAI): formation of radiolabeled cholesterol oleate from radiolabeled oleic acid in intestinal microsomes. Particulars: tissue preparation containing rabbit intestinal microsomes, concentration required to inhibit the activity of the enzyme by 50%, read-out: IAI IC₅₀. It counts as biochemical. How it is done:
The ability of representative compounds of the present invention to inhibit ACAT was measured using an in vitro test more fully described in F. J. Field and R. G. Salone, Biochemica et Biophysica 712:557-570 (1982). The test assesses the ability of a test compound to inhibit the acylation of cholesterol by oleic acid by measuring the amount of radiolabeled cholesterol oleate formed from radiolabeled oleic acid in a tissue preparation containing rabbit intestinal microsomes.
The data appear in Table 1 where they are expressed in IC₅₀ values; i.e., the concentration of test compound required to inhibit the activity of the enzyme by 50%.

Where a name gives a salt, the structure may show the parent alone. Read-outs that look alike come from different tables or passages of the source. Some results are limits rather than exact numbers.

With `CC(C)c1cccc(C(C)C)c1OC(=O)NS(=O)(=O)Oc1c(C(C)C)cccc1C(C)C` [Example 1, 2,6-Bis(1-methylethyl)phenyl[[2,6-bis(1-methylethyl)phenoxy]sulfonyl]carbamate], the “% Change (mg/dl)” value in assay [1] is recorded as -70%.
For the compound `Cc1cc(C(C)(C)C)c(OC(=O)NS(=O)(=O)Oc2ccccc2)c(C(C)(C)C)c1` [Example 2, 2,6-Bis(1,1-dimethylethyl)-4-methylphenyl(phenoxysulfonyl)carbamate], the “% Change (mg/dl)” value in assay [1] is listed as -65%.
Turning to `CCCCCCOS(=O)(=O)NC(=O)Oc1c(C(C)(C)C)cc(C)cc1C(C)(C)C` [Example 3, 2,6-Bis(1,1-dimethylethyl)-4-methylphenyl[(hexyloxy)sulfonyl]carbamate], in assay [1], the “% Change (mg/dl)” value is listed as -56%.
Turning to `CCCCCCCCCCCCOS(=O)(=O)NC(=O)Oc1c(C(C)(C)C)cc(C)cc1C(C)(C)C` [Example 4], the IC50 in assay [2] was 52 µM. In assay [1], the “% Change (mg/dl)” value is listed as -65%.
For `CCCCCCCCCCCCOC(=O)NS(=O)(=O)Oc1c(C(C)C)cccc1C(C)C` [Example 5, Dodecyl [[2,6-bis(1-methylethyl)phenoxy]sulfonyl]carbamate], in assay [2], the IC50 was 13 µM. Further, the “% Change (mg/dl)” value in assay [1] is on record as -62%.
Turning to `COC(=O)NS(=O)(=O)Oc1c(C(C)C)cccc1C(C)C` [Example 6, Methyl[[2,6-bis(1-methylethyl)phenoxy]sulfonyl]carbamate], the IC50 in assay [2] is greater than 100 µM.
With `CCCCCCOS(=O)(=O)NC(=O)Oc1c(C(C)C)cccc1C(C)C` [Example 7, 2,6-Bis(1-methylethyl)phenyl[(hexyloxy)sulfonyl]carbamate], the “% Change (mg/dl)” value in assay [1] was -52%.
Turning to `CCCCCCCCCCCCOS(=O)(=O)NC(=O)Oc1c(C(C)C)cccc1C(C)C` [Example 8], the IC50 in assay [2] was 13 µM. The “% Change (mg/dl)” value in assay [1] is listed as -68%.
Regarding `CC(C)c1cccc(C(C)C)c1OS(=O)(=O)NC(=O)Oc1c(C(C)(C)C)cccc1C(C)(C)C` [Example 9, 2,6-Bis(1,1-dimethylethyl)phenyl[[2,6-bis(1-methylethyl)phenoxy]sulfonyl]carbamate], the “% Change (mg/dl)” value in assay [1] is -70%.
In the case of `CCCCCCCCCCCCOS(=O)(=O)NC(=O)Oc1c(-c2ccccc2)cccc1-c1ccccc1` [Example 10, [1,1':3',1''-Terphenyl]-2'-yl[(dodecyloxy)sulfonyl]carbamate], the IC50 in assay [2] was greater than 10 µM. The “% Change (mg/dl)” value in assay [1] is -69%.
Take `CC(C)c1cccc(C(C)C)c1OC(=O)NS(=O)(=O)Oc1ccccc1` [Example 17, 2,6-Bis(1-methylethyl)phenyl(phenoxysulfonyl)carbamate]: the “% Change (mg/dl)” value in assay [1] is -26%.
For the compound `Cc1cccc(C)c1OS(=O)(=O)NC(=O)Oc1c(C(C)C)cccc1C(C)C` [Example 18, 2,6-Bis(1-methylethyl)phenyl[(2,6-dimethylphenoxy)sulfonyl]carbamate], in assay [1], the “% Change (mg/dl)” value was -58%.
As for `COc1cccc(OC)c1OS(=O)(=O)NC(=O)Oc1c(C(C)C)cccc1C(C)C` [Example 19, 2,6-Bis(1-methylethyl)phenyl[(2,6-dimethoxyphenoxy)sulfonyl]carbamate], the “% Change (mg/dl)” value in assay [1] is -70%.
Regarding `CC(C)c1cccc(C(C)C)c1OC(=O)NS(=O)(=O)Oc1ccc(F)cc1F` [Example 20], in assay [2], the IC50 was determined as 50 µM. In assay [1], the “% Change (mg/dl)” value was -11%.
Take `COc1cc(OC)c(OS(=O)(=O)NC(=O)Oc2c(C(C)C)cccc2C(C)C)c(OC)c1` [Example 21, 2,6-Bis(1-methylethyl)phenyl[(2,4,6-trimethoxyphenoxy)sulfonyl]carbamate]: the “% Change (mg/dl)” value in assay [1] is -61%.
Regarding `CC(C)c1cccc(C(C)C)c1OC(=O)NS(=O)(=O)Oc1c(F)cccc1F` [Example 22], the IC50 in assay [2] amounted to 38 µM. The “% Change (mg/dl)” value in assay [1] is “+9%”.
On to `CCCCCCCCCCCCCCCCOS(=O)(=O)NC(=O)Oc1c(C(C)C)cccc1C(C)C` [Example 23, 2,6-Bis(1-methylethyl)phenyl[(hexadecyloxy)sulfonyl]carbamate], for which the “% Change (mg/dl)” value in assay [1] is listed as -59%.
On to `CC(C)c1cccc(C(C)C)c1OC(=O)NS(=O)(=O)Oc1c(C(C)(C)C)cccc1C(C)(C)C` [Example 24, 2,6-Bis(1-methylethyl)phenyl[[2,6-bis(1,1-dimethylethyl)phenoxy]sulfonyl]carbamate], for which, in assay [1], the “% Change (mg/dl)” value is -55%.
For `COc1cccc(OC)c1OC(=O)NS(=O)(=O)Oc1c(OC)cccc1OC` [Example 25, 2,6-dimethoxyphenyl[(2,6-dimethoxyphenoxy)sulfonyl]carbamate], in assay [1], the “% Change (mg/dl)” value is reported as -10%.
Take `CC(C)(C)c1cccc(C(C)(C)C)c1OC(=O)NS(=O)(=O)Oc1c(C(C)(C)C)cccc1C(C)(C)C` [Example 26, 2,6-Bis(1,1-dimethylethyl)phenyl[(2,6-bis(1,1-dimethylethyl)phenoxy)sulfonyl]carbamate]: in assay [1], the “% Change (mg/dl)” value was -18%.
On to `CC(C)c1cccc(C(C)C)c1OC(=O)NS(=O)(=O)Oc1c(C(C)C)cccc1C(C)C` [Example 27, 2,6-bis(1-methylethyl)phenyl[[2,6-bis(1-methylethyl)phenoxylsulfonyl]carbamate, 2-hydroxy-N,N,N-trimethylethanaminium salt], for which the IC50 in assay [2] was found to be 3.3 µM. Besides, the “% Change (mg/dl)” value in assay [1] is on record as -72%.
As to `CC(C)c1cccc(C(C)C)c1OC(=O)NS(=O)(=O)Oc1c(C(C)C)cccc1C(C)C` [Example 28, 2,6-bis(1-methylethyl)phenyl[[2,6-bis(1-methylethyl)phenoxy]sulfonyl]carbamate, monosodium salt], the IC50 in assay [2] (monosodium salt) stood at 5.2 µM. In assay [1] (monosodium salt), the “% Change (mg/dl)” value was -65%.
For `CCCCCCCCCCCCOS(=O)(=O)NC(=O)Sc1c(C(C)C)cccc1C(C)C` [Example 30, S-[2,6-bis(1-methylethyl)phenyl][(dodecyloxy)sulfonyl]carbamothioate], the “% Change (mg/dl)” value in assay [1] is -9%.
On to `CC(C)c1cccc(C(C)C)c1OC(=O)N(C)S(=O)(=O)Oc1c(C(C)C)cccc1C(C)C` [Example 31, 2,6-bis(1-methylethyl)phenyl[[2,6-bis(1-methylethyl)phenoxylsulfonyl]methyl carbamate], for which the IC50 in assay [2] worked out at 63 µM. Further, in assay [1], the “% Change (mg/dl)” value is -64%.

These data come from EP0555351B1, “OXYSULFONYL CARBAMATES” (WARNER-LAMBERT COMPANY, priority 1990, dated 1992).
